Measured values from BigSolDB 2.1.

O=C([O-])c1ccccc1.[K+]
solubility (mole fraction)
Conditions	in DMAc	in DMF	in ethanol	in formamide	in isobutanol	in isopropanol	in methanol	in n-butanol	in n-pentanol	in n-propanol
282.95 K	0.000243	0.000325	0.00133	0.0439	0.000248	0.000225	0.0144	0.000586	0.000517	0.000735
287.95 K	0.000263	0.000372	0.00143	0.0444	0.000284	0.000256	0.0148	0.000617	0.000604	0.000781
293.25 K	0.000287	0.000426	0.00157	0.045	0.000325	0.000286	0.0153	0.000646	0.000693	0.000841
298.25 K	0.000309	0.000502	0.00168	0.0457	0.000355	0.000314	0.0158	0.000673	0.000776	0.000892
303.35 K	0.000333	0.000587	0.00181	0.0465	0.000402	0.000354	0.0162	0.000731	0.000865	0.000961
308.25 K	0.000367	0.000665	0.00192	0.0473	0.000457	0.000409	0.0167	0.000795	0.000929	0.00104
312.85 K	0.000392	0.000722	0.0021	0.0481	0.000517	0.000459	0.0172	0.000898	0.000986	0.00115
317.95 K	0.000425	0.000778	0.00244	0.0489	0.000572	0.000511	0.0181	0.000983	0.00105	0.00126
